The molecules below were run on vesicular stomatitis virus particles (VSV) pseudotyped with EboV Zaire GP (assay: microbe, parasite or virus in culture). Conditions: Vesicular stomatitis virus.
Type: cell-based

Row | SMILES | IC50
1 | CC(=O)N1CCCC(Oc2cc(F)cc(CN3CCN(C(=O)CNC(=O)C4CC45CCC(F)(F)CC5)CC3)c2)C1 (stereo not shown) [Compound 1453] | > 5000 nM
2 | O=C(CNC(=O)C12CC3(F)CC(F)(CC(F)(C3)C1)C2)N1CCN(Cc2ccccc2OCc2ccc(Br)cc2)CC1 [Compound 1255] | 400 nM
3 | CC1(CC(=O)NCC(=O)N2CCN(Cc3cc(Cl)cc4cccnc34)CC2)CCOCC1 [Compound 1424] | 2800 nM
4 | O=C(CC12CC3CC(CC(C3)C1)C2)NCC(=O)N1CCN(Cc2cc(Cl)cc(F)c2F)CC1 [Compound 1327, 2-((1R,3R,5S)-Adamantan-1-yl)-N-(2-(4-(5-chloro-2,3-difluorobenzyl)piperazin-1-yl)-2-oxoethyl)acetamide] | 670 nM
5 | O=C(CC1CCC(F)(F)CC1)NCC(=O)N1CCN(Cc2cc(Cl)cc(F)c2F)CC1 [Compound 1369, N-(2-(4-(5-Chloro-2,3-difluorobenzyl)piperazin-1-yl)-2-oxoethyl)-2-(4,4-difluorocyclohexyl)acetamide] | > 2000 nM
6 | COC(=O)CCCOc1ccc(Cl)cc1CN1CCN(C(=O)CNC(=O)CC23CC4CC(CC(C4)C2)C3)CC1 [Compound 1303, Methyl 4-(2-((4-((2-((1R,3R,5S)-Adamantan-1-yl)acetyl)glycyl)piperazin-1-yl)methyl)-4-chlorophenoxy)butanoate] | ~2000 nM
7 | O=C(CC12CC3CC(CC(C3)C1)C2)NCC(=O)N1CCN(Cc2cc(Br)ccc2O)CC1 [Compound 1026] | 300 to 500 nM
8 | [2H]C([2H])(c1cc(Cl)cc2cc[nH]c12)N1CCN(C(=O)CNC(=O)CC2CCC(F)(F)CC2)CC1 [Compound 1433, N-(2-(4-((5-Chloro-JH-indol-7-yl)methyl-d2)piperazin-1-yl)-2-oxoethyl)-2-(4,4-difluorocyclohexyl)acetamide] | > 5000 nM
9 | NC(=O)c1ccc(COc2ccccc2CN2CCN(C(=O)CNC(=O)CC34CC5CC(CC(C5)C3)C4)CC2)cc1 [Compound 1260] | 700 nM
10 | O=C(CC12CC3CC(CC(C3)C1)C2)NCC(=O)N1CCN(Cc2c(F)ccc(Cl)c2F)CC1 [Compound 1306, 2-((1R,3R,5S)-Adamantan-1-yl)-N-(2-(4-(3-chloro-2,6-difluorobenzyl)piperazin-1-yl)-2-oxoethyl)acetamide] | 1350 nM
11 | COC(=O)c1ccc(COc2ccc(Cl)cc2CN2CCN(C(=O)CNC(=O)C3C4CC(F)(F)CC43)CC2)cc1 (stereo not shown) [Compound 1346, Methyl 4-((4-chloro-2-((4-((3,3-difluorobicyclo[3.1.0]hexane-6-carbonyl)glycyl)piperazin-1-yl)methyl)phenoxy)methyl)benzoate] | 200 nM
12 | COC(=O)c1ccc(COc2ccccc2CN2CCN(C(=O)CNC(=O)CC3CC(F)(F)C3)CC2)cc1 [Compound 1315, Methyl 4-((2-((4-((2-(3,3-difluorocyclobutyl)acetyl)glycyl)piperazin-1-yl)methyl)phenoxy)methyl)benzoate] | 400 nM
13 | O=C(NCC(=O)N1CCN(Cc2cc(Cl)cc3cn[nH]c23)CC1)C1CC12CCC(F)(F)CC2 (stereo not shown) [Compound 1421, N-(2-(4-((5-Chloro-JH-indazol-7-yl)methyl)piperazin-1-yl)-2-oxoethyl)-6,6-difluorospiro[2.5]octane-1-carboxamide] | > 5000 nM
14 | N#Cc1ccc(COc2ccc(Cl)cc2CN2CCN(C(=O)CNC(=O)C3CC34CCC(F)(F)CC4)CC2)nc1 (stereo not shown) [Compound 1622, 6,6-Difluoro-spiro[2.5]octane-1-carboxylic acid (2-{4-[5-chloro-2-(5-cyano-pyridin-2-ylmethoxy)-benzyl]-piperazin-1-yl)-2-oxo-ethyl)-amide] | 19 nM
15 | NC(=O)Nc1ccc(Br)cc1CN1CCN(C(=O)CNC(=O)CC2CCC(F)(F)CC2)CC1 [Compound 1360, N-(2-(4-(5-Bromo-2-ureidobenzyl)piperazin-1-yl)-2-oxoethyl)-2-(4,4-difluorocyclohexyl)acetamide] | > 2000 nM
16 | Nc1c(Cl)cc(Cl)cc1CN1CCN(C(=O)CNC(=O)CC23CC4CC(CC(C4)C2)C3)CC1 [Compound 1349, 2-((1R,3R,5S)-Adamantan-1-yl)-N-(2-(4-(2-amino-3,5-dichlorobenzyl)piperazin-1-yl)-2-oxoethyl)acetamide] | 500 nM
17 | N#Cc1ccc(Br)cc1CN1CCN(C(=O)CNC(=O)CC23CC4CC(CC(C4)C2)C3)CC1 [Compound 1329, 2-((1R,3R,5S)-Adamantan-1-yl)-N-(2-(4-(5-bromo-2-cyanobenzyl)piperazin-1-yl)-2-oxoethyl)acetamide] | 310 nM
18 | COC(=O)c1ccc(COc2ccc(Br)cc2CN2CCN(C(=O)CNC(=O)CC34CC5CC(CC(C5)C3)C4)CC2)cc1 [Compound 1111] | 13 nM
19 | Nc1ccc(Br)cc1CN1CCN(C(=O)CNC(=O)CC2CCC(F)(F)CC2)CC1 [Compound 1355, N-(2-(4-(2-Amino-5-bromobenzyl)piperazin-1-yl)-2-oxoethyl)-2-(4,4-difluorocyclohexyl)acetamide] | 1740 nM

Row | SMILES | IC50
20 | CC(C)(CC(=O)NCC(=O)N1CCN(Cc2ccccc2OCc2ccc(Br)cc2)CC1)C1CCCCC1 [Compound 1138] | > 2000 nM
21 | O=C(CC1CCC(F)(F)CC1)NCC(=O)N1CCN(Cc2cc(Cl)cc(OC3CC3)c2)CC1 [Compound 1365, N-(2-(4-(3-Chloro-5-cyclopropoxybenzyl)piperazin-1-yl)-2-oxoethyl)-2-(4,4-difluorocyclohexyl)acetamide] | 1600 nM
22 | O=C(CC12CC3CC(CC(C3)C1)C2)NCC(=O)N1CCN(Cc2cc(Br)cc([N+](=O)[O-])c2)CC1 [Compound 1340, 2-((1R,3R,5S)-Adamantan-1-yl)-N-(2-(4-(3-bromo-5-nitrobenzyl)piperazin-1-yl)-2-oxoethyl)acetamide] | 1270 nM
23 | O=C(CC12CC3CC(C1)C(C3)C2)NCC(=O)N1CCN(Cc2cc(Cl)cc(OC(F)(F)F)c2)CC1 [Compound 1330] | 1510 nM
24 | O=C(CC1CCC(F)(F)CC1)NCC(=O)N1CCN(Cc2cc(Cl)ccc2Cl)CC1 [Compound 1366, N-(2-(4-(2,5-Dichlorobenzyl)piperazin-1-yl)-2-oxoethyl)-2-(4,4-difluorocyclohexyl)acetamide] | > 2000 nM
25 | O=C(CC1CCC(F)(F)CC1)NCC(=O)N1CCN(Cc2cc(Br)ccc2F)CC1 [Compound 1370, N-(2-(4-(5-Bromo-2-fluorobenzyl)piperazin-1-yl)-2-oxoethyl)-2-(4,4-difluorocyclohexyl)acetamide] | ~2200 nM
26 | O=C(CC1CCC(F)(F)CC1)NCC(=O)N1CCN(Cc2cc(Br)ccc2NC(=O)C2CC2)CC1 [Compound 1375, N-(4-Bromo-2-((4-((2-(4,4-difluorocyclohexyl)acetyl)glycyl)piperazin-1-yl)methyl)phenyl)cyclopropanecarboxamide] | > 2000 nM
27 | O=C(CC1CCC(F)(F)CC1)NCC(=O)N1CCN(Cc2cc(Cl)c(F)cc2F)CC1 [Compound 1368, N-(2-(4-(5-chloro-2,4-difluorobenzyl)piperazin-1-yl)-2-oxoethyl)-2-(4,4-difluorocyclohexyl)acetamide] | > 2000 nM
28 | COC(=O)c1ccc(COc2ccccc2CN2CCN(C(=O)CNC(=O)CC3CCC(F)(F)CC3)CC2)cc1 [Compound 1275, Methyl 4-((2-((4-((2-(4,4-difluorocyclohexyl)acetyl)glycyl)piperazin-1-yl)methyl)phenoxy)methyl)benzoate] | 50 nM
29 | CS(=O)(=O)c1ccc(Oc2cc(F)cc(CN3CCN(C(=O)CNC(=O)CC4CCC(F)(F)CC4)CC3)c2)cc1 [Compound 1460] | > 1000 nM
30 | COC(=O)c1ccc(/C=C/c2ccccc2CN2CCN(C(=O)CNC(=O)CC34CC5CC(CC(C5)C3)C4)CC2)cc1 [Compound 1253] | 1500 nM
31 | CN(C)S(=O)(=O)c1ccc(COc2ccccc2CN2CCN(C(=O)CNC(=O)CC34CC5CC(CC(C5)C3)C4)CC2)cc1 [Compound 1258] | 400 nM
32 | O=C(NCC(=O)N1CCN(Cc2cccc3cccnc23)CC1)C1CC12CCC(F)(F)CC2 (stereo not shown) [Compound 1420, 6,6-Difluoro-N-(2-oxo-2-(4-(quinolin-8-ylmethyl)piperazin-1-yl)ethyl)spiro[2.5]octane-1-carboxamide] | 490 nM
33 | Nc1ccc(Cl)cc1CN1CCN(C(=O)CNC(=O)C2CC23CCCC3)CC1 (stereo not shown) [Compound 1806, N-(2-(4-(2-Amino-5-chlorobenzyl)piperazin-1-yl)-2-oxoethyl)spiro[2.4]heptane-1-carboxamide] | 240 nM
34 | Nc1ccc(Br)cc1CN1CCN(C(=O)CNC(=O)C2C3CC(F)(F)CC32)CC1 (stereo not shown) [Compound 1362, N-(2-(4-(2-Amino-5-bromobenzyl)piperazin-1-yl)-2-oxoethyl)-3,3-difluorobicyclo[3.1.0]hexane-6-carboxamide] | > 2000 nM
35 | CN(C)C(=O)c1ccc(COc2ccccc2CN2CCN(C(=O)CNC(=O)CC34CC5CC(CC(C5)C3)C4)CC2)cc1 [Compound 1802] | 3300 nM
36 | [2H]C([2H])(c1cc(Cl)ccc1NCc1cnco1)N1CCN(C(=O)CNC(=O)C2CC23CCC(F)(F)CC3)CC1 (stereo not shown) [Compound 1560] | 40 nM
37 | N#Cc1ccc(Br)cc1CN1CCN(C(=O)CNC(=O)CC2CCC(F)(F)CC2)CC1 [Compound 1371, N-(2-(4-(5-Bromo-2-cyanobenzyl)piperazin-1-yl)-2-oxoethyl)-2-(4,4-difluorocyclohexyl)acetamide] | > 2000 nM
38 | O=C(CC12CC3CC(CC(C3)C1)C2)NCC(=O)N1CCN(Cc2cc(Cl)cc(Cl)c2Cl)CC1 [Compound 1350, 2-((1R,3R,5S)-adamantan-1-yl)-N-(2-oxo-2-(4-(2,3,5-trichlorobenzyl)piperazin-1-yl)ethyl)acetamide] | 800 nM

Same assay, conditions: read-out: IC50

Row | SMILES | IC50
39 | COC(=O)c1ccc(Oc2cc(Cl)cc(CN3CCN(C(=O)CNC(=O)CC45CC6CC(CC(C6)C4)C5)CC3)c2)cc1 [Compound 1323, Methyl 4-(3-((4-((2-((1R,3R,5S)-adamantan-1-yl)acetyl)glycyl)piperazin-1-yl)methyl)-5-chlorophenoxy)benzoate] | 15 nM
40 | CC(=O)Nc1ccc(Cl)cc1CN1CCN(C(=O)CNC(=O)CC23CC4CC(CC(C4)C2)C3)CC1 [Compound 1342, N-(2-(4-(2-Acetamido-5-chlorobenzyl)piperazin-1-yl)-2-oxoethyl)-2-((3s)-adamantan-1-yl)acetamide] | 1100 nM

— patent US11629139B2 (priority 2017, dated 2023)
